# “Also recorded” adds a separate entry of the source. Read-outs that look alike come from different tables or passages of the source.
# Legend:
# [1] = tested on: T. vaginalis strain F1623; assay: 24 h growth and survival assay (ATP luminescence, GI50); assay type: cell-based, Trichomonas vaginalis; conditions: for SI (ratio of GI50 in HeLa cells over GI50 in T. vaginalis): T. vaginalis F1623 vs human HeLa cells
# Procedure: The following T. vaginalis strains were used: F1623 ([50]), G3 (ATCC PRA-98), and LA1 ([25]). […] Drug susceptibility assays were performed as described previously ([23]) with several minor modifications. Briefly, 10 mM stocks of the test compounds in DMSO were serially diluted 1:3 using an Echo 650 Acoustic Liquid Handler (Beckman Coulter). Subsequently, trophozoites (5 × 10^3/well) in TYM modified media were added to the wells in 384-well plates, and cultures were incubated for 24 h at 37°C under anaerobic conditions (AnaeroPack-Anaero System; Remel). For testing in mammalian cells, the following cell lines were used: Human cervical cancer cells HeLa (ATCC CCL-2), non-transformed mouse fibroblast cell line 3T3-L1 (ATCC CL-173), normal monkey kidney epithelial cell line Vero (ATCC CCL-81), and human B lymphoma cells Raji (ATCC CCL-86). Test compounds were serially diluted (1:3) and added to mammalian cell cultures grown in 384-well plates, and cultures were incubated for 48 h at 37°C in 5% CO2, 95% air. Growth and viability of T. vaginalis and mammalian cells were determined with an ATP assay by adding the BacTiter-Glo Microbial Cell Viability Assay reagent (Promega) directly to the wells and measuring ATP-dependent luminescence in a microplate reader. […] Experiments were repeated at least three times, and the mean and SEM of the pGI50 values were calculated.
# [2] = molecular target: T. vaginalis Tv20S proteasome β1 subunit (Trichomonas vaginalis, UniProt A2E7Z2); assay: In vitro proteasome assay, Ac-RYFD-amc substrate; assay type: biochemical; conditions: recombinant Tv20S, mean ± SD of three experiments
# Procedure: (§1) The T. vaginalis proteasome was expressed in recombinant form as previously described ([27]). Briefly, Spodoptera frugiperda cells were co-infected with three baculovirus vectors carrying the T. vaginalis genes for the 7 α-subunits, 7 β-subunits, and the Ump-1 chaperone, respectively. The resulting proteasome complex was purified from cell lysates via streptavidin column and size exclusion chromatography and stored at −80°C. Purified human c20S proteasome and recombinant human proteasome activator PA28α ([21]) were obtained from Bio-Techne and stored at −80°C. Dilutions of the test agents were transferred to 384-well plates (Greiner Bio-One) in triplicate wells using an Echo 650 Acoustic Liquid Handler (Beckman Coulter). Six replicate plates were prepared for each compound for testing with three T. vaginalis-optimized substrates and three human-optimized substrates. After dispensing, plates were sealed and stored at −20°C. The following fluorescent substrates and final substrate concentrations were used to assay subunit activities of the T. vaginalis proteasome (Tv20S) ([28]) or the human constitutive proteasome (c20S) ([19], [52]): Ac-RYFD-amc (Genscript) at 100 µM for Tv20S β1 subunit, Ac-FRSR-amc (Genscript) at 20 µM for Tv20S β2 subunit, Ac-GWYL-amc (Genscript) at 20 µM for Tv20S β5 subunit, z-LLE-amc (R&D Systems) at 80 µM for c20S β1 subunit, z-VLR-amc (AdipoGen Life Sciences) at 30 µM for c20S β2 subunit, and suc-LLVY-amc (R&D Systems) at 65 µM for c20S β5 subunit. Substrates and proteasomes were diluted in an assay buffer consisting of HEPES pH 7.5 and 1 mM DTT. For the human proteasome assays, 2 nM c20S was incubated at room temperature with 200 nM PA28α for 1 h to activate the complex prior to addition to the 384-well plates containing the substrate-inhibitor mixtures. […] Both proteasomes were added to the wells at a 1 nM final assay concentration. Fluorescence was measured over 4 h at 360 nm excitation and 460 nm emission on a Biotek Synergy HTX plate reader.
# [3] = tested on: T. vaginalis Tv20S proteasome β2 subunit; assay: In vitro proteasome assay, Ac-FRSR-amc substrate; assay type: biochemical, Trichomonas vaginalis; conditions: recombinant Tv20S, mean ± SD of three experiments; for IC50: read-out: Tv20S proteasome inhibition of β2 subunit (IC50)
# Procedure: as §1
# [4] = molecular target: T. vaginalis Tv20S proteasome β5 subunit (Trichomonas vaginalis, UniProt A2DD57+A2F716); assay: biochemical; assay type: biochemical
# Procedure: as §1
# [5] = molecular target: T1, Human c20S proteasome β1 subunit (Homo sapiens, UniProt P28072+Q99436); assay: In vitro proteasome assay, z-LLE-amc substrate; assay type: biochemical; conditions: purified human c20S with PA28α, mean ± SD; for IC50: read-out: Human c20S proteasome inhibition of β1 subunit (IC50)
# T1 construct: purchased Bio-Techne
# Procedure: as §1
# [6] = molecular target: T2, Human c20S proteasome β2 subunit (Homo sapiens, UniProt P49720+Q99436); assay: In vitro proteasome assay, z-VLR-amc substrate; assay type: biochemical; conditions: purified human c20S with PA28α, mean ± SD; for IC50: read-out: Human c20S proteasome inhibition of β2 subunit (IC50)
# T2 construct: purchased Bio-Techne
# Procedure: as §1
# [7] = molecular target: T3, Human c20S proteasome β5 subunit (Homo sapiens, UniProt P20618+P28074); assay: In vitro proteasome assay, suc-LLVY-amc substrate; assay type: biochemical; conditions: purified human c20S with PA28α, mean ± SD; for IC50: read-out: Human c20S proteasome inhibition of β5 subunit (IC50)
# T3 construct: purchased Bio-Techne
# Procedure: as §1
# [8] = recombinant Tv20S, mean ± SD of three experiments, read-out: Tv20S proteasome inhibition of β5 subunit (IC50)
# [9] = relative to parental compound 4
# Chain of T. vaginalis Tv20S proteasome β1 subunit (A2E7Z2 entry or part of it): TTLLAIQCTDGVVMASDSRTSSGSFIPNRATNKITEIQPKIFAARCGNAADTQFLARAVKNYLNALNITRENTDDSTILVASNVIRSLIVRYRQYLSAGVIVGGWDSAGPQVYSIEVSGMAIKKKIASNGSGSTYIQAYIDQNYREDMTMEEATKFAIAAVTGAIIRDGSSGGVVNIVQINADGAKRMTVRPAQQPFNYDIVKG
# Chain of T. vaginalis Tv20S proteasome β5 subunit (A2DD57 entry or part of it): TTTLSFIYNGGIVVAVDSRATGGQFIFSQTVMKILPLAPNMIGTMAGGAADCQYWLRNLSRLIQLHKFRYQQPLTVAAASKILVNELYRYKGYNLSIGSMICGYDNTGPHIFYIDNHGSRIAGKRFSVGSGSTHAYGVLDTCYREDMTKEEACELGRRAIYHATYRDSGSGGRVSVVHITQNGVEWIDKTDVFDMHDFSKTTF
# Chain of T. vaginalis Tv20S proteasome β5 subunit (A2F716 entry or part of it): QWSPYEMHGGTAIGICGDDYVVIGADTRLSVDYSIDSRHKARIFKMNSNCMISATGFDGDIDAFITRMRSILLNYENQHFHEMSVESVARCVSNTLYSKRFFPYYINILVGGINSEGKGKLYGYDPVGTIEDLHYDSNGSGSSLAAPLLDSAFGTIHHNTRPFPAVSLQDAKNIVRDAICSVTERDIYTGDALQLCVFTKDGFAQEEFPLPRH
Compound,Tv20S proteasome inhibition of β1 subunit (IC50) [2],Tv20S proteasome inhibition of β2 subunit (IC50) [3],"IC50 [4, 8] [nM]",Human c20S proteasome inhibition of β1 subunit (IC50) [5],IC50 [7] [nM],SI (ratio of GI50 in HeLa cells over GI50 in T. vaginalis) [1],other results
CCCCCC(=O)N[C@H](CCC(=O)OC(C)(C)C)CC(=O)N[C@@H](CCCC)C(=O)N[C@@H](Cc1ccccc1)C(=O)[C@@]1(C)CO1 [compound 94],–,–,–,–,–,3.16,growth inhibitory activity against T. vaginalis (in words) ([1]; F1623): lacked activity and selectivity
COc1ccc(C[C@H](NC(=O)[C@H](C)NC(=O)CN2CCOCC2)C(=O)N[C@@H](CC2CCC(C3CCCCC3)CC2)C(=O)[C@@]2(C)CO2)cc1 (some centres unmarked) [compound 197],–,–,–,–,–,< 0.71,–
COc1ccc(C[C@H](NC(=O)[C@H](C)NC(=O)CN2CCOCC2)C(=O)N[C@@H](CC2CCCCC2)C(=O)[C@@]2(C)CO2)cc1 [compound 156],–,–,–,–,–,0.83,–
COc1ccc(C[C@H](NC(=O)[C@H](C)NC(=O)CN2CCOCC2)C(=O)N[C@@H](Cc2ccc3ccccc3c2)C(=O)[C@@]2(C)CO2)cc1 [compound 35],–,–,–,–,–,3.47,–
COc1ccc(C[C@H](NC(=O)[C@H](C)NC(=O)C2=C(C)c3ccccc3C2)C(=O)N[C@@H](Cc2ccccc2)C(=O)[C@@H]2CO2)cc1 [compound 66],–,–,–,–,–,2.69,"loss in selectivity [1, 9]: ~ 10 fold; reduction in activity against T. vaginalis [1, 9]: ~ 50 fold"
COc1ccc(C[C@H](NC(=O)[C@H](C)NC(=O)CN2CCOCC2)C(=O)N[C@@H](CC2CCC(c3ccccc3)CC2)C(=O)[C@@]2(C)CO2)cc1 (some centres unmarked) [compound 201],–,–,–,–,–,< 0.72,–
COc1ccc(CC(NC(=O)C(C)NC(=O)OCc2ccccc2)C(=O)NC(Cc2ccccc2)C(=O)C2(C)CO2)cc1 (centres unmarked) [compound 11],Activation,No inhibition,4.29 ± 2.23,No inhibition,45.3 ± 4.67,51.3,Human c20S proteasome inhibition of β2 subunit (IC50) [6]: No inhibition
"C[C@@]12OC(=O)[C@]1([C@@H](O)[C@@H]1C=CCCC1)NC(=O)[C@@H]2CCCl [18 (MZB), marizomib, reference compound]",–,No inhibition,–,–,–,–,"IC50 ([4]; Tv20S proteasome inhibition of β5 subunit (IC50), recombinant Tv20S, mean ± SD of three experiments): 0.88 ± 0.11 nM; IC50 [5]: 66.5 ± 11.7 nM; IC50 [6]: 46.7 ± 11.2 nM"
"CC(C)C[C@H](NC(=O)[C@H](Cc1ccccc1)NC(=O)c1cnccn1)B(O)O [43 (BTZ), bortezomib, reference compound]",–,–,–,–,–,–,IC50 [3]: 30.8 ± 19.9 nM; IC50 ([4]; read-out: Tv20S proteasome inhibition of β5 subunit (IC50)): 21.6 ± 1.69 nM
"CCCCCC(=O)N[C@H](C(=O)N[C@@H](CCS(C)(=O)=O)C(=O)N[C@@H](CC(C)C)C(=O)[C@@]1(C)CO1)C(C)C [38 (CPB), carmaphycin B, reference compound]",Activation,–,1.51 ± 0.69,–,7.92 ± 0.72,–,IC50 [3]: 440 ± 101 nM; β5 SI ratio (c20S/Tv20S) [4]: 5.25; IC50 [5]: 895 ± 510 nM; IC50 [6]: 14.6 ± 0.83 nM
COc1ccc(C[C@H](NC(=O)[C@H](C)NC(=O)C2=C(C)c3ccccc3C2)C(=O)N[C@@H](Cc2ccc(-c3ccccc3)cc2)C(=O)[C@]2(C)CO2)cc1 [compound 60],–,–,–,–,–,8.13,–
CCCCC(=O)N[C@@H](Cc1ccc(O)cc1)C(=O)N[C@@H](CCCC)C(=O)N[C@@H](Cc1ccccc1)C(=O)[C@@]1(C)CO1 [compound 5],Activation,No inhibition,2.43 ± 0.39,No inhibition,1.06 ± 0.08,–,IC50 [6]: 68.2 ± 13 nM
CC(C)CC(NC(=O)C(CC12CC3CC(CC(C3)C1)C2)NC(=O)c1cnccn1)B(O)O (centres unmarked) [compound 32],–,–,–,–,–,1.02,–

# The next lines start with results.
Tv20S proteasome inhibition of β1 subunit (IC50) [2],Tv20S proteasome inhibition of β2 subunit (IC50) [3],"IC50 [4, 8] [nM]",Human c20S proteasome inhibition of β1 subunit (IC50) [5],IC50 [7] [nM],Compound,SI (ratio of GI50 in HeLa cells over GI50 in T. vaginalis) [1],other results
Activation,No inhibition,60.5 ± 8.1,No inhibition,84.8 ± 20.2,COc1ccc(C[C@H](NC(=O)[C@H](C)NC(=O)C2=C(C)c3ccccc3C2)C(=O)N[C@@H](Cc2ccccc2)C(=O)[C@]2(C)CO2)cc1 [compound 22],16.6,Human c20S proteasome inhibition of β2 subunit (IC50) [6]: No inhibition
Activation,No inhibition,44.1 ± 6.71,No inhibition,39.4 ± 4.76,COc1ccc(C[C@H](NC(=O)[C@H](C)NC(=O)C2=C(C)c3ccccc3C2)C(=O)N[C@@H](Cc2ccc(-c3ccccc3)cc2)C(=O)[C@@]2(C)CO2)cc1 [compound 20],16.2,Human c20S proteasome inhibition of β2 subunit (IC50) [6]: No inhibition
Activation,No inhibition,172 ± 91.7,No inhibition,–,CCCCCC(=O)N[C@H](CC(=O)N[C@@H](CCCC)C(=O)N[C@@H](Cc1ccc(F)cc1F)C(=O)[C@@]1(C)CO1)CC(=O)OC(C)(C)C [compound 75],–,Human c20S proteasome inhibition of β2 subunit (IC50) [6]: No inhibition; Human c20S proteasome inhibition of β5 subunit (IC50) [7]: no measurable c20S β5 inhibitory activity; also recorded: No inhibition
Activation,No inhibition,9.25 ± 1.81,No inhibition,13.8 ± 4.21,CSc1ccc(CC(=O)NC(C(=O)NC(Cc2c(F)c(F)c(F)c(F)c2F)C(=O)N[C@@H](CC(C)C)C(=O)[C@@]2(C)CO2)C(C)C)cc1 (some centres unmarked) [compound 50],–,IC50 [6]: 64.7 ± 8.19 nM
Activation,No inhibition,82.6 ± 32.1,No inhibition,1010,CCCC[C@H](NC(=O)[C@H](CC(=O)N1CCCC1)NC(=O)[C@H](Cc1ccc(OC)cc1)N1CCCC1=O)C(=O)N[C@@H](Cc1ccc(F)cc1F)C(=O)[C@@]1(C)CO1 [compound 45],–,Human c20S proteasome inhibition of β2 subunit (IC50) [6]: No inhibition
Activation,No inhibition,21 ± 2.47,No inhibition,8.16 ± 1.8,CCCCCC(=O)N[C@@H](CO)C(=O)N[C@@H](CCCC)C(=O)N[C@@H](Cc1ccccc1)C(=O)[C@@]1(C)CO1 [compound 19],–,IC50 [6]: 2160 nM
Activation,No inhibition,2.52 ± 1.05,No inhibition,8.81 ± 0.69,CCCCC(=O)N[C@H](Cc1c[nH]c2ccccc12)C(=O)N[C@@H](Cc1c[nH]c2ccccc12)C(=O)N[C@@H](Cc1ccccc1)C(=O)[C@]1(C)CO1 [compound 91],–,–
